This note sets out measurements from patent US8772266B2, “Fungicide pyrazole carboxamides derivates” (Bayer Cropscience AG, priority 2009, dated 2014).

Molecules are shown by their SMILES. A value given as a limit tells only on which side of the number the result lay.

One series deals with Fusarium proliferatum. Kind of series: Inhibition of Fumonisin FB1 produced by Fusarium proliferatum. Format: cell-based. To be noted: 120 h, read-out: inhibition of Fumonisin FB1 production.
For the next series, the system named is Sphaerotheca fuliginea. In words: In vivo preventive test on Sphaerotheca fuliginea (cucumber), Example G. To be noted: 10 ppm of active ingredient, evaluated 7 days after inoculation. The source says: After the spray coating has dried on, the plants are inoculated with an aqueous spore suspension of Sphaerotheca fuliginea.
The test system of another series is Fusarium nivale. Kind of series: In vivo curative test on Fusarium nivale (wheat). To be noted: 500 ppm of active ingredient, evaluated 8 days after inoculation.
A short description of series [1]: logP by HPLC on reversed-phase column (EEC Directive 79/831 Annex V.A8). To be noted: for logP: HPLC, reversed-phase column (C 18), 40° C., 0.1% aqueous formic acid and acetonitrile, linear gradient 10% to 90% acetonitrile.
A further series has as its system Tetranychus urticae. In words: Spray application test on Tetranychus urticae. Format: in vivo. To be noted: 500 g of active ingredient/ha; after 6 days. Here is the method: Solvent: 78.0 parts by weight acetone • 1.5 parts by weight dimethylformamide
Emulsifier: 0.5 parts by weight alkylarylpolyglcolether
French beans (Phaseolus vulgaris) which are heavily infested with all stages of the two spotted spidermite (Tetranychus urticae), are sprayed with a preparation of the active ingredient at the desired concentration.
After 6 days, mortality in % is determined. 100% means that all spider mites have been killed and 0% means that none of the spider mites have been killed.

Another series concerns Aspergillus parasiticus. In words: microbe, parasite or virus in culture. Format: cell-based. To be noted: 168 h, 50 μM of active ingredient, 7 days, fluorescence, read-out: inhibition of aflatoxines production.
The next series concerns Meloidogyne incognita. In words: Test on Meloidogyne incognita. Format: in vivo. To be noted: 20 ppm of active ingredient; after 14 days. As to the method:
Solvent: 80.0 parts by weight of acetone
Vessels are filled with sand, a solution of the active ingredient, a suspension containing eggs and larvae of Meloidogyne incognita and salad seeds. The salad seeds germinate and the seedlings grow. Galls develop in the roots.
After 14 days the nematicidal activity is determined on the basis of the percentage of gall formation. 100% means that no galls were found; 0% means that the number of galls found on the roots of the treated plants was equal to that in untreated control plants.

The subject of a further series is Phakopsora pachyrhizi. In words: In vivo preventive test on Phakopsora pachyrhizi (soybean rust). To be noted: 50 ppm of active ingredient, evaluated 11 days after inoculation. Here is the method:
Solvent: 28.5 parts by weight of acetone
Emulsifier: 1.5 parts by weight of polyoxyethylene alkyl phenyl ether
One day after spraying, the plants are inoculated with an aqueous spore suspension of the causal agent of soybean rust (Phakopsora pachyrhizi).
The test is evaluated 11 days after the inoculation.

For the next series, the system named is Puccinia triticina. Kind of series: In vivo curative test on Puccinia triticina (wheat). To be noted: 500 ppm of active ingredient, evaluated 8 days after inoculation.

For the compound `Cn1nc(C(F)F)c(C(=O)N(Cc2ncc(C(F)(F)F)cc2Cl)C2CC2)c1F` [N-{[3-chloro-5-(trifluoromethyl)pyridin-2-yl]methyl}-N-cyclopropyl-3-(difluoromethyl)-5-fluoro-1-methyl-1H-pyrazole-4-carboxamide], the inhibition at 50 µM in the series on Fusarium proliferatum is below 55%.

Consider `Cn1nc(C(F)F)c(C(=O)N(Cc2c(Cl)cccc2C(F)(F)F)C2CC2)c1F` [Example 2], for which the disease control with Sphaerotheca fuliginea and in the series with Fusarium nivale was 100% throughout. Also, the logP in [1] was determined as 3.46.

With `Cn1nc(C(F)F)c(C(=O)N(Cc2cc(Cl)cc(Cl)c2Cl)C2CC2)c1F` [Example 18], the disease control in the series with Sphaerotheca fuliginea and in the series on Fusarium nivale was 100% each time. Besides, the logP in series [1] is listed as 4.11.

Regarding `CC(C)c1ccc(Cl)cc1CN(C(=O)c1c(C(F)F)nn(C)c1F)C1CC1` [Example 29], the disease control in the series with Sphaerotheca fuliginea and in the series on Fusarium nivale was 100% each time. The logP in [1] is 4.09.

As to `Cn1nc(C(F)F)c(C(=O)N(Cc2cc(Cl)ccc2[Si](C)(C)C)C2CC2)c1F` [Example 24], the disease control in the series with Sphaerotheca fuliginea and in the series on Fusarium nivale was 100% throughout. The compound further had a logP in series [1] of 4.81.

As to `Cn1nc(C(F)F)c(C(=O)N(Cc2cc(Cl)ccc2C(F)(F)F)C2CC2)c1F` [Example 1], the disease control with Sphaerotheca fuliginea and with Fusarium nivale was 100% each time. In the series on Tetranychus urticae, the mortality in % came out at 80%. The same compound had a logP in [1] of 3.8.

Regarding `Cn1nc(C(F)F)c(C(=S)N(Cc2ccccc2[Si](C)(C)C)C2CC2)c1F` [Example 38, N-cyclopropyl-3-(difluoromethyl)-5-fluoro-1-methyl-N-[2-(trimethylsilyl)benzyl]-1H-pyrazole-4-carbothioamide], the disease control with Sphaerotheca fuliginea is on record as 100%. In addition, the inhibition at 50 µM with Aspergillus parasiticus is above 80%. Also, in [1], the chromatographic logP stood at 4.94.

Regarding `CC(C)c1ccccc1CN(C(=O)c1c(C(F)F)nn(C)c1F)C1CC1` [Example 6], the disease control with Sphaerotheca fuliginea and with Fusarium nivale was 100% throughout. Also, the mortality in % in the series with Tetranychus urticae is 80%. In addition, in the series on Meloidogyne incognita, the “nematicidal activity (% reduction of galls vs untreated control)” value is reported as 80%. Besides, in series [1], the logP is on record as 3.35.

With `CCc1ccccc1C(C)N(C(=O)c1c(C(F)F)nn(C)c1F)C1CC1` (stereo not shown) [Example 81], the disease control in the series on Sphaerotheca fuliginea and with Fusarium nivale was 100% in each case. In series [1], this compound displayed a logP of 3.69.

In the case of `CC[Si](CC)(CC)c1ccccc1CN(C(=O)c1c(C(F)F)nn(C)c1F)C1CC1` [Example 14], the disease control in the series with Sphaerotheca fuliginea and in the series with Fusarium nivale was 100% each time. Also, the logP in [1] was 5.53.

With `Cc1nn(C)c(F)c1C(=S)N(Cc1ccccc1[Si](C)(C)C)C1CC1` [N-cyclopropyl-5-fluoro-1,3-dimethyl-N-[2-(trimethylsilyl)benzyl]-1H-pyrazole-4-carbothioamide], the disease control result in the series with Phakopsora pachyrhizi is “less than 85%”.

In the case of `Cn1nc(C(F)F)c(C(=O)N(Cc2cc(Cl)ccc2I)C2CC2)c1F` [Example 23], the disease control with Sphaerotheca fuliginea and in the series on Fusarium nivale was 100% throughout. Besides, the logP in series [1] came to 3.83.

For the compound `CC(c1cccc2ccccc12)N(C(=O)c1c(C(F)F)nn(C)c1F)C1CC1` (stereo not shown) [N-cyclopropyl-3-(difluoromethyl)-5-fluoro-1-methyl-N-[1-(1-naphthyl)ethyl]-1H-pyrazole-4-carboxamide, reference compound], the figures for the disease control result in the series with Fusarium nivale and in the series with Puccinia triticina were “less than 95%” and “less than 85%”, respectively.

Take `Cn1nc(C(F)F)c(C(=O)N(Cc2c(C(F)(F)F)ccc(Cl)c2F)C2CC2)c1F` [Example 5]: the disease control with Sphaerotheca fuliginea and with Fusarium nivale was 100% each time. For the same compound, the mortality in % with Tetranychus urticae is reported as 80%. The logP in series [1] was 3.62.

In the case of `Cn1nc(C(F)F)c(C(=O)N(Cc2c(F)cccc2I)C2CC2)c1F` [Example 8], the disease control in the series on Sphaerotheca fuliginea and in the series with Fusarium nivale was 100% in each case. In series [1], this compound displayed a logP of 3.26.

With `Cn1nc(C(F)F)c(C(=O)N(Cc2c(Br)ccc(F)c2F)C2CC2)c1F` [Example 10], the disease control with Sphaerotheca fuliginea and with Fusarium nivale was 100% each time. In addition, the logP in series [1] worked out at 3.21.

For `Cn1nc(C(F)F)c(C(=O)N(Cc2cc(Cl)ccc2C2CC2)C2CC2)c1F` [Example 41], the disease control in the series on Sphaerotheca fuliginea and with Fusarium nivale was 100% in each case. The same compound returned a logP in series [1] of 3.87.

For the compound `CC(c1cc(Cl)cc(Cl)c1)N(C(=O)c1c(C(F)F)nn(C)c1F)C1CC1` (racemic) [Example 40], the mortality in % in the series with Tetranychus urticae is on record as 80%. The same compound registered a disease control in the series with Fusarium nivale of 100%. This compound had a logP in series [1] of 4.04.

In the case of `Cn1nc(C(F)F)c(C(=O)N(Cc2ccccc2[Si](C)(C)C)C2CC2)c1F` [Example 3, N-cyclopropyl-3-(difluoromethyl)-5-fluoro-1-methyl-N-[2-(trimethylsilyl)benzyl]-1H-pyrazole-4-carboxamide], in the series with Aspergillus parasiticus, the inhibition at 50 µM is above 80%. In addition, the chromatographic logP in series [1] came to 4.36.

`Cn1nc(C(F)F)c(C(=O)N(Cc2ccc(Cl)cc2Cl)C2CC2)c1F` [Example 63] came in with a disease control in the series on Fusarium nivale of 100%. This compound displayed a logP in series [1] of 3.69.

As for `Cc1cc(C)cc(C(C)N(C(=O)c2c(C(F)F)nn(C)c2F)C2CC2)c1` (racemic) [Example 46], the disease control with Fusarium nivale is listed as 100%. In addition, the logP in series [1] amounted to 3.8.

`CC(C)Oc1ccc2c(c1)CCCC2N(C(=O)c1c(C(F)F)nn(C)c1F)C1CC1` (stereo not shown) [Example 42] registered a disease control in the series with Fusarium nivale of 100%. For the same compound, the logP in series [1] is listed as 4.11.

In the case of `CC(C)c1ccccc1C(C)N(C(=O)c1c(C(F)F)nn(C)c1F)C1CC1` (stereo not shown) [Example 80], the disease control in the series on Sphaerotheca fuliginea and in the series on Fusarium nivale was 100% throughout. The compound also came in with a logP in [1] of 3.99.

As for `Cn1nc(C(F)F)c(C(=O)N(Cc2ccccc2C(F)(F)F)C2CC2)c1F` [Example 61], the disease control in the series with Fusarium nivale is reported as 100%. Further, the logP in [1] is on record as 3.39.

As for `Cn1nc(C(F)F)c(C(=O)N(Cc2c(C(F)(F)F)ccc(Cl)c2Cl)C2CC2)c1F` [Example 15], the disease control in the series on Sphaerotheca fuliginea and in the series with Fusarium nivale was 100% each time. In [1], this compound showed a logP of 3.89.

In the series with Tetranychus urticae, `Cn1nc(C(F)F)c(C(=O)N(Cc2ccccc2SC(F)(F)F)C2CC2)c1F` [Example 30] registered a mortality in % of 80%. The compound also came in with a disease control with Fusarium nivale of 100%. The compound further showed a logP in series [1] of 3.74.

Take `Cn1nc(C(F)F)c(C(=O)N(Cc2c(F)cccc2C(F)(F)F)C2CC2)c1F` [Example 84]: the disease control in the series on Sphaerotheca fuliginea and with Fusarium nivale was 100% throughout.

As for `CCCCCc1ccccc1CN(C(=O)c1c(C(F)F)nn(C)c1F)C1CC1` [Example 28], the disease control with Fusarium nivale was 100%. Further, in series [1], the logP turned out to be 4.62.

For orientation: inhibition means the drop in the measured response relative to a control, in per cent. As usually defined, the logP is the decadic logarithm of the partition coefficient of the neutral form, usually between octanol and water. A higher logP goes with higher lipophilicity. As a reminder, the chromatographic logP is a lipophilicity value derived from retention on a column.
